Data published in patent US8940310B2, “Methods of treatment using TLR7 and/or TLR9 inhibitors” (Dynavax Technologies Corporation, priority 2010, dated 2015).
Marks after values point to notes of the source that are not given here.

Columns and labels:
[1] = High dosages of IRPs in rats (weight, deaths, histology); assay type: in vivo, Sprague Dawley rats; conditions: rat; for Heart: Cell Vacuolation, number of animals / Heart: Hemorrhage, number of animals / Heart: Mononuclear Cell Infiltration, number of animals / Heart: Necrosis, number of animals / Heart: No significant changes, number of animals / Liver: Liver changes, number of animals / Liver: Mixed cell infiltration, number of animals / Liver: Necrosis, number of animals / Liver: No significant changes, number of animals / Liver: Vacuolation, number of animals / Right Kidney: Hydronephrosis, number of animals / Right Kidney: Mineralization, number of animals / Right Kidney: Necrosis, number of animals / Right Kidney: No significant changes, number of animals / Right Kidney: Tubular basophilia, number of animals / Right Kidney: Tubular changes, number of animals: 6 animals
[2] = Monomer and tetramer formation of IRPs, size-exclusion HPLC; assay type: physicochemical; conditions: 100 mg/mL in PBS and 0.5M KCl, room temperature, three weeks
Description: Solutions were prepared of the by mixing 100 mg/mL of the IRP sequences in PBS and 0.5M KCl and storing at room temperature for three to five weeks. The solutions were subsequently analyzed by size-exclusion HPLC.

[3] = High dosages of IRPs in mice (weight, histology); assay type: in vivo, BALB/c mice; conditions: for Liver: Liver changes, number of animals / Liver: Mixed cell infiltration, number of animals / Liver: No significan changes, number of animals / Right Kidney: No significant changes, number of animals / Right Kidney: Tubular basophilia, number of animals / Right Kidney: Tubular changes, number of animals: 6 animals; for Heart: No significant changes, number of animals: tissue missing in two animals
Summary of the method: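 BALB/c mice (n=5 per group) received IRPs or saline subcutaneously at 4, 20, 50 or 100 mg/kg on days 1, 4, 7 and 10. Body weight tracked over the study; at termination organ weights, tissue oligonucleotide levels and liver, kidney and heart histology were assessed.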

[4] = system: human B-cells; assay: Human B-cells cultured in the presence of IRPs, IL-6
[5] = 10 mg/kg, 0 = no change to 4 = severe
[6] = 90 mg/kg, 0 = no change to 4 = severe
[7] = 50 mg/kg, 0 = no change to 4 = severe
[8] = 100 mg/kg, 0 = no change to 4 = severe

Substance: 5′-TGCTCCTGGAGGGGTTGT-3′ (DNA, backbone not given here) [SEQ ID NO:42]
- organ weight of the liver, heart, kidney, or spleen ([1]; 10 mg/kg or 100 mg/kg SC days 0, 3, 6, 9): no significant difference
- Heart: Cell Vacuolation, number of animals ([1]; 10 mg/kg): 0
- Heart: Hemorrhage, number of animals ([1]; 10 mg/kg): 0
- Heart: Mononuclear Cell Infiltration, number of animals ([1]; 10 mg/kg): 1
- Heart: Necrosis, number of animals ([1]; 10 mg/kg): 0
- Heart: No significant changes, number of animals ([1]; 10 mg/kg): 5
- Liver: Liver changes, number of animals ([1]; 10 mg/kg): 1
- Liver: Mixed cell infiltration, number of animals ([1]; 10 mg/kg): 2
- Liver: Necrosis, number of animals ([1]; 10 mg/kg): 0
- Liver: No significant changes, number of animals ([1]; 10 mg/kg): 3
- Liver: Vacuolation, number of animals ([1]; 10 mg/kg): 0
- Right Kidney: Hydronephrosis, number of animals ([1]; 10 mg/kg): 0
- Right Kidney: Mineralization, number of animals ([1]; 10 mg/kg): 3
- Right Kidney: Necrosis, number of animals ([1]; 10 mg/kg): 0
- Right Kidney: No significant changes, number of animals ([1]; 10 mg/kg): 0
- Right Kidney: Tubular basophilia, number of animals ([1]; 10 mg/kg): 0
- Right Kidney: Tubular changes, number of animals ([1]; 10 mg/kg): 6
- Heart: Mononuclear Cell Infiltration, mean severity score [1, 5]: 2.0
- Liver: Liver changes, mean severity score [1, 5]: 1.0
- Liver: Mixed cell infiltration, mean severity score [1, 5]: 1.5
- Right Kidney: Mineralization, mean severity score [1, 5]: 2.0
- Right Kidney: Tubular changes, mean severity score [1, 5]: 1.0
- Kidney: tubular basophilia ([1]; 90 mg/kg): occurred
- Liver: hepatocellular necrosis ([1]; 90 mg/kg): hepatocellular necrosis
- Heart: Cell Vacuolation, number of animals ([1]; 90 mg/kg): 0
- Heart: Hemorrhage, number of animals ([1]; 90 mg/kg): 0
- Heart: Mononuclear Cell Infiltration, number of animals ([1]; 90 mg/kg): 0
- Heart: Necrosis, number of animals ([1]; 90 mg/kg): 0
- Heart: No significant changes, number of animals ([1]; 90 mg/kg): 6
- Liver: Liver changes, number of animals ([1]; 90 mg/kg): 6
- Liver: Mixed cell infiltration, number of animals ([1]; 90 mg/kg): 4
- Liver: Necrosis, number of animals ([1]; 90 mg/kg): 1
- Liver: No significant changes, number of animals ([1]; 90 mg/kg): 0
- Liver: Vacuolation, number of animals ([1]; 90 mg/kg): 0
- Right Kidney: Hydronephrosis, number of animals ([1]; 90 mg/kg): 0
- Right Kidney: Mineralization, number of animals ([1]; 90 mg/kg): 1
- Right Kidney: Necrosis, number of animals ([1]; 90 mg/kg): 0
- Right Kidney: No significant changes, number of animals ([1]; 90 mg/kg): 0
- Right Kidney: Tubular basophilia, number of animals ([1]; 90 mg/kg): 4
- Right Kidney: Tubular changes, number of animals ([1]; 90 mg/kg): 6
- Liver: Liver changes, mean severity score [1, 6]: 2.3
- Liver: Mixed cell infiltration, mean severity score [1, 6]: 2.1
- Liver: Necrosis, mean severity score [1, 6]: 3.5
- Right Kidney: Mineralization, mean severity score [1, 6]: 1.0
- Right Kidney: Tubular basophilia, mean severity score [1, 6]: 1.5
- Right Kidney: Tubular changes, mean severity score [1, 6]: 2.0
- fraction in monomer form [2]: 54.01%
- fraction in tetramer form [2]: 45.99%
- Heart: Chronic inflammation, number of animals ([3]; 50 mg/kg): 1
- Heart: Mineralization, number of animals ([3]; 50 mg/kg): 1
- Heart: Chronic inflammation, mean severity score [3, 7]: 2.0
- Heart: Mineralization, mean severity score [3, 7]: 3.0
- Liver: Liver changes, mean severity score [3, 7]: 1.0
- Liver: Mixed cell infiltration, mean severity score [3, 7]: 1.8
- Right Kidney: Tubular changes, mean severity score [3, 7]: 1.0
- Liver: Liver changes, number of animals ([3]; 50 mg/kg): 5
- Liver: Mixed cell infiltration, number of animals ([3]; 50 mg/kg): 4
- Liver: No significan changes, number of animals ([3]; 50 mg/kg): 0
- Right Kidney: No significant changes, number of animals ([3]; 50 mg/kg): 1
- Right Kidney: Tubular basophilia, number of animals ([3]; 50 mg/kg): 0
- Right Kidney: Tubular changes, number of animals ([3]; 50 mg/kg): 5
- Heart: No significant changes, number of animals ([3]; 50 mg/kg): 2**
- Heart: Chronic inflammation, number of animals ([3]; 100 mg/kg): 0
- Heart: Mineralization, number of animals ([3]; 100 mg/kg): 1
- weight loss as % gain versus pre-dose ([3]; 100 mg/kg SC days 1, 4, 7, 10): but not SEQ ID NO:42 provoked weight loss
- Heart: Mineralization, mean severity score [3, 8]: 2.0
- Liver: Liver changes, mean severity score [3, 8]: 1.8
- Liver: Mixed cell infiltration, mean severity score [3, 8]: 2.0
- Right Kidney: Tubular changes, mean severity score [3, 8]: 1.0
- Liver: Liver changes, number of animals ([3]; 100 mg/kg): 6
- Liver: Mixed cell infiltration, number of animals ([3]; 100 mg/kg): 4
- Liver: No significan changes, number of animals ([3]; 100 mg/kg): 0
- Right Kidney: No significant changes, number of animals ([3]; 100 mg/kg): 0
- Right Kidney: Tubular basophilia, number of animals ([3]; 100 mg/kg): 0
- Right Kidney: Tubular changes, number of animals ([3]; 100 mg/kg): 6
- Heart: No significant changes, number of animals ([3]; 100 mg/kg): 3**
- Normalized IL-6 Response (Percentage of Positive Control) ([4]; Experiment # 1, Max Conc 4.0 uM): 13%
- Normalized IL-6 Response (Percentage of Positive Control) ([4]; Experiment # 2, Max Conc 4.0 uM): 14%
- Normalized IL-6 Response (Percentage of Positive Control) ([4]; Experiment # 3, Max Conc 4.0 uM): 5%
- Normalized IL-6 Response (Percentage of Positive Control) ([4]; Experiment # 4, Max Conc 4.0 uM): 9%
- Normalized IL-6 Response (Percentage of Positive Control) ([4]; Experiment # 5, Max Conc 4.0 uM): 10%
- Normalized IL-6 Response (Percentage of Positive Control) ([4]; Experiment # 6, Max Conc 4.0 uM): 6%
- Normalized IL-6 Response (Percentage of Positive Control) ([4]; Experiment # 7, Max Conc 4.0 uM): 9%
- Normalized IL-6 Response (Percentage of Positive Control) ([4]; Experiment # 8, Max Conc 2.0 uM): 8%
- Normalized IL-6 Response (Percentage of Positive Control) ([4]; Experiment # 9, Max Conc 2.0 uM): 6%
- Normalized IL-6 Response (Percentage of Positive Control) ([4]; Experiment # 10, Max Conc 2.0 uM): 18%
- Normalized IL-6 Response (Percentage of Positive Control) ([4]; Experiment # 11, Max Conc 2.0 uM): 10%
- B-cell response as evidenced by IL-6 produced ([4]; human B-cells with IRP alone, 48 hours, FIGS. 1A-B): did not induce any B-cell response
